Publication PMC12068934 (Nature chemistry, 2024)

Assays:
OvsA = OvsA (Vreelandella halophila, UniProt A0A9X4Y9G9); assay: LC-MS after mBBr derivatization; assay type: biochemical; conditions: histidine 1 mM, DTT 4 mM, pH 8, room temperature
SenA = SenA (Variovorax paradoxus, UniProt A0ACH4EUD1); assay: preparative enzymatic synthesis, product NMR; assay type: biochemical; conditions: DTT 20 mM, pH 8, room temperature, 24 h

Row | Compound | LC-MS after mBBr derivatization (OvsA) | preparative enzymatic synthesis, product NMR (SenA; hercynine 5 mM) | preparative enzymatic synthesis, product NMR (SenA; SeGlcNAc 6 mM)
1 | CC(=O)N[C@@H]1[C@@H](O)[C@H](O)[C@@H](CO)O[C@H]1[SeH] [SeGlcNAc, N-acetyl-1-seleno-β-D-glucosamine] | reaction of the NHISS with SeGlcNAc and histidine resulted in rapid formation of a species | large-scale reaction containing SenA and its substrates hercynine and SeGlcNAc | –
2 | C[N+](C)(C)[C@@H](Cc1cnc[nH]1)C(=O)[O-] [hercynine, Nα-trimethylhistidine] | – | – | large-scale reaction containing SenA and its substrates hercynine and SeGlcNAc
